Data taken from US6602897B2, “m-Amino-phenylimino-imidazolidine derivatives for treating urinary incontinence” (Boehringer Ingelheim Pharma KG, priority 2000, dated 2003).
Structures can show the parent of a compound that is named as a salt.

Tests used:
[1] = test system: femoral artery in the dog / carotid artery in the dog; experiment: Selectivity in the dog: contraction on femoral artery vs carotid artery; details: percentage contraction on femoral artery at 10^-5 M — percentage contraction on carotid artery at 10^-5 M
Procedure: (§1) The efficacy and selectivity of the compounds is determined as follows:
(§2) The maximum contraction in the dog and the activity on the human urethra are given as percentages of contraction compared with noradrenalin. Selectivity in the dog: percentage contraction on the femoral artery in the dog at 10^−5 M—percentage contraction on the carotid artery in the dog at 10^−5 M.

[2] = test system: HLM; experiment: Metabolism: breakdown of test substance by HLM; format: in vitro ADME
Procedure: The rate of breakdown under the effect of the enzyme HLM/60 minutes is tested analogously.

[3] = test system: dog; experiment: Efficacy: maximum contraction in the dog compared with noradrenalin; details: percentage of contraction compared with noradrenalin
Procedure: as §1, §2

[4] = test system: Human Urethra; experiment: Efficacy: activity on the human urethra, contraction compared with noradrenalin; details: percentage of contraction compared with noradrenalin
Procedure: as §1, §2

[5] = biological target: CYP2D6 (Homo sapiens, UniProt P10635); experiment: Metabolism: breakdown of test substance by enzyme CYP2D6; format: in vitro ADME
CYP2D6, sequence (P10635 whole entry): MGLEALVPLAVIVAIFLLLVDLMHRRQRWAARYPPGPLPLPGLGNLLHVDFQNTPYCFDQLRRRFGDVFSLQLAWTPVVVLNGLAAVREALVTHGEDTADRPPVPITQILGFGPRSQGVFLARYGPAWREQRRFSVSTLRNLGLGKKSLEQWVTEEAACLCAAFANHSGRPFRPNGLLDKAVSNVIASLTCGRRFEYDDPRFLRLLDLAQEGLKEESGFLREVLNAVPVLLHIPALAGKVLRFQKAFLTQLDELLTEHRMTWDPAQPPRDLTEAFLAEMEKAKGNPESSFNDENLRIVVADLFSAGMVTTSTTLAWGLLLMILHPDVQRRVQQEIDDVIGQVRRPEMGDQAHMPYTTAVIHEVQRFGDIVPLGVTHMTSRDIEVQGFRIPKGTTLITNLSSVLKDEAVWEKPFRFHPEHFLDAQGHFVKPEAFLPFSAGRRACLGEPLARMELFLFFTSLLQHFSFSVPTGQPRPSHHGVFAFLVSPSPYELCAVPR
Procedure: To determine the metabolism, the enzyme CYP2D6 was allowed to act on the test substances. After 30 minutes, a check was made to see how much of the test substance put in had been broken down by the enzyme.

[6] = Bioavailability after oral vs intravenous administration to fasted male rats, plasma HPLC; format: in vivo; details: rat, oral compared with intravenous, pooled plasma by HPLC
Procedure: In order to determine bioavailability, the test substances were administered orally to a group of 8 male rats which had been fasted. As a comparison, the test substances were administered intravenously to animals in an identical second group. 1 ml blood samples were taken from the animals of both groups at specified times after administration (10 minutes, 30 minutes, 1 hour, 2 hours, and 4 hours, and additionally after 6 hours in the case of the animals treated by oral route). The blood samples taken in each group were mixed together (8 ml). After further working up, the content of the test substances in the blood for the particular time was determined from the plasma by HPLC (High Performance Liquid Chromatography) using standard methods and compared for the two groups.

Row | SMILES | melting point | Selectivity in the Dog [1] | Breakdown of Substrate after 60 minutes' Incubation with HLM [2] | Activity in the Dog (maximum contraction) [3] | Activity on Human Urethra [4] | % Breakdown of Substrate after 30 minutes' Incubation with CYP2D6 [5] | bioavailability [6]
1 | CN(C)c1ccc(Br)c(NC2=NCCN2)c1Cl | 142 to 145 °C |  |  |  |  |  | 
2 | Cc1c(N(C)C)cc(Cl)c(Br)c1NC1=NCCN1 (as salt: hydrochloride) [Compound 1, 2′-Bromo-3′-chloro-5′-dimethylamino-6′-methylphen-1′-yl-2-iminoimidazolidine] | 239 to 240 °C |  |  |  |  |  | 
3 | Cc1c(N(C)C)cc(Cl)c(Br)c1NC1=NCCN1 [Compound 1, 2′-Bromo-3′-chloro-5′-dimethylamino-6′-methylphen-1′-yl-2-iminoimidazolidine] |  | 0.92 | 32.1 | 109% | 100% | 40.5% | 
4 | Cc1c(NC2=NCCN2)cc(Br)cc1N(C)C [Compound 3, 3′-bromo-5′-dimethylamino-6′-methylphen-1′-yl-2-iminoimidazolidine] | 140 to 143 °C | 0.76 | 17.0 | 87% | 72% | 33.9% | 
5 | Cc1c(NC2=NCCN2)cc(Cl)cc1N(C)C [Compound 4, 3′-chloro-5′-dimethylamino-6′-methylphen-1′-yl-2-iminoimidazolidine] |  | 0.99 | 17.1 | 116% | 137% | 36.5% | 11%
6 | Cc1c(N(C)C)cc(Br)c(Br)c1NC1=NCCN1 [Compound 5, 2′-3′-dibromo-5′-dimethylamino-6′-methylphen-1′-yl-2-iminoimidazolidine] |  | 0.71 | 22.0 | 89% | 113% | 22.2% | 0.8%
7 | CN(C)c1cccc(NC2=NCCN2)c1Cl [Compound 6, 2′-chloro-3′-dimethylaminophen-1′-yl-2-iminoimidazolidine] | 146 to 148 °C |  | 7.4 |  |  |  | 
8 | CN(C)c1c(Br)ccc(NC2=NCCN2)c1Cl [Compound 7, 4′-bromo-2′-chloro-3′-dimethylaminophen-1′-yl-2-iminoimidazolidine] | 150 to 155 °C |  | 55.8 |  |  | 46.4% | 
